According to patent publication US20250171438A1 (Agios Pharmaceuticals, Inc., priority 2022, published 2025):
Read-outs that look alike come from different tables or passages of the source.

Biological target: T1, human PAH with the R408W mutation (Homo sapiens, UniProt P00439, R408W)
T1 construct: expressed in transfected cells
T1 sequence (P00439 1-452 R408W): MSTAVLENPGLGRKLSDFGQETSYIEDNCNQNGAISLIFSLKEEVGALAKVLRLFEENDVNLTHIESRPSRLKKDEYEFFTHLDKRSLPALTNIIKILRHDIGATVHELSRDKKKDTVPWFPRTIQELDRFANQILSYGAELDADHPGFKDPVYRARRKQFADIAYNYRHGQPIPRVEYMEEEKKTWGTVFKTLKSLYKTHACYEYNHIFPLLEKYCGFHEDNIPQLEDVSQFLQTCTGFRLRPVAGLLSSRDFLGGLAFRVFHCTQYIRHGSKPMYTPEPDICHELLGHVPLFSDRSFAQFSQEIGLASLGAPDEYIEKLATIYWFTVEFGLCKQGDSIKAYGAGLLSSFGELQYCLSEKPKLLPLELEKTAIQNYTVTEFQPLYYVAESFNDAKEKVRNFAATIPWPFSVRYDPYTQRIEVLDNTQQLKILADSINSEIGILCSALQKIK
Test: Cell Based Phenylalanine Flux Assay
Set-up: scale not given here
Conditions: A375 cells expressing human R408W PAH, 13C-Tyrosine by LC-MS, average where tested multiple times

[1] = 24 hrs with compound, read-out: AC50
[2] = 24 hrs compound incubation, read-out: AC50

AC50 [2] [µM]	Structure (SMILES)	also measured
	Cn1nc(C2CC2)cc1C(=O)N1CCc2[nH]cnc2[C@@H]1c1nc2c(F)cccc2s1 (single isomer, unassigned)	AC50 [1]: > 5 µM
	Cn1ncnc1C(=O)N1CCc2[nH]cnc2[C@@H]1c1nc2c(F)cccc2s1 (single isomer, unassigned)	AC50 [1]: > 5 µM
	Cc1nc(C(C)(C)S(C)(=O)=O)oc1C(=O)N1CCc2[nH]cnc2[C@@H]1c1nc2c(F)cccc2s1 (single isomer, unassigned)	AC50 [1]: > 5 µM
	CC(C)(O)c1cc(C(=O)N2CCc3[nH]cnc3[C@H]2c2nc3ccccc3s2)sn1 (single isomer, unassigned)	AC50 [1]: 1 to 5 µM
> 5	c1ccc2[nH]c([C@H]3c4nc[nH]c4CCN3Cc3nccs3)nc2c1 (single isomer, unassigned) [Example 926]	
< 0.5	c1ccc2[nH]c([C@@H]3c4nc[nH]c4CCN3Cc3nccs3)nc2c1 (single isomer, unassigned) [Example 927]	
< 0.5	O=C(CC1CC1(F)F)N1CCc2[nH]cnc2[C@H]1c1nc2ccccc2s1 (single isomer, unassigned) [Example 1271]	
0.5 to 1	O=C(CC1CC1(F)F)N1CCc2[nH]cnc2[C@H]1c1nc2ccccc2s1 (single isomer, unassigned) [Example 1274]	
> 5	O=C(C1CC1(F)F)N1CCc2[nH]cnc2[C@@H]1c1nc2ccccc2s1 (single isomer, unassigned) [Example 1285]	
1 to 5	O=C(C1CC1(F)F)N1CCc2[nH]cnc2[C@@H]1c1nc2ccccc2s1 (single isomer, unassigned) [Example 1286]	
> 5	O=C(C1CC1(F)F)N1CCc2[nH]cnc2[C@H]1c1nc2ccccc2s1 (single isomer, unassigned) [Example 1287]	
0.5 to 1	O=C(C1CC1(F)F)N1CCc2[nH]cnc2[C@H]1c1nc2ccccc2s1 (single isomer, unassigned) [Example 1288]	
1 to 5	CC1(C(=O)N2CCc3[nH]cnc3[C@@H]2c2nc3ccccc3s2)CC1(F)F (single isomer, unassigned) [Example 1289]	
> 5	CC1(C(=O)N2CCc3[nH]cnc3[C@@H]2c2nc3ccccc3s2)CC1(F)F (single isomer, unassigned) [Example 1290]	
0.5 to 1	CC1(C(=O)N2CCc3[nH]cnc3[C@H]2c2nc3ccccc3s2)CC1(F)F (single isomer, unassigned) [Example 1291]	
1 to 5	CC1(C(=O)N2CCc3[nH]cnc3[C@H]2c2nc3ccccc3s2)CC1(F)F (single isomer, unassigned) [Example 1292]	
< 0.5	O=C(c1nnc(-c2ccc(F)cn2)o1)N1CCc2[nH]cnc2[C@H]1c1nc2ccccc2s1 (single isomer, unassigned) [Example 1365]	
1 to 5	Nc1cnc(N2CCc3[nH]cnc3[C@@H]2c2nc3ccccc3s2)nc1 (single isomer, unassigned) [Example 1467]	
0.5 to 1	Nc1cnc(N2CCc3[nH]cnc3[C@H]2c2nc3ccccc3s2)nc1 (single isomer, unassigned) [Example 1468]	
< 0.5	CC(O)(c1nc(C(F)(F)F)c(C(=O)N2CCc3[nH]cnc3[C@H]2c2nc3ccccc3s2)o1)C1CC1 (single isomer, unassigned) [Example 1561]	
< 0.5	CC(O)(c1nc(C(F)(F)F)c(C(=O)N2CCc3[nH]cnc3[C@H]2c2nc3ccccc3s2)o1)C1CC1 (single isomer, unassigned) [Example 1562]	
< 0.5	CC(O)(c1nc(C(F)(F)F)c(C(=O)N2CCc3[nH]cnc3[C@@H]2c2nc3ccccc3s2)o1)C1CC1 (single isomer, unassigned) [Example 1563]	
< 0.5	CC(O)(c1nc(C(F)(F)F)c(C(=O)N2CCc3[nH]cnc3[C@@H]2c2nc3ccccc3s2)o1)C1CC1 (single isomer, unassigned) [Example 1564]	
< 0.5	CC(O)c1nc(Br)c(C(=O)N2CCc3[nH]cnc3[C@H]2c2nc3c(F)cccc3s2)o1 (single isomer, unassigned) [Example 2057]	

AC50 [2] [µM]	Structure (SMILES)	also measured
< 0.5	CC(O)c1nc(Br)c(C(=O)N2CCc3[nH]cnc3[C@H]2c2nc3c(F)cccc3s2)o1 (single isomer, unassigned) [Example 2058]	
1 to 5	CC(O)c1nc(Br)c(C(=O)N2CCc3[nH]cnc3[C@@H]2c2nc3c(F)cccc3s2)o1 (single isomer, unassigned) [Example 2059]	
0.5 to 1	CC(O)c1nc(Br)c(C(=O)N2CCc3[nH]cnc3[C@@H]2c2nc3c(F)cccc3s2)o1 (single isomer, unassigned) [Example 2060]	
< 0.5	CC(F)c1nc(C(F)F)c(C(=O)N2CCc3[nH]cnc3[C@H]2c2nc3c(F)cccc3s2)o1 (single isomer, unassigned) [Example 2073]	
< 0.5	CC(F)c1nc(C(F)F)c(C(=O)N2CCc3[nH]cnc3[C@H]2c2nc3c(F)cccc3s2)o1 (single isomer, unassigned) [Example 2074]	
< 0.5	CC(F)c1nc(C(F)F)c(C(=O)N2CCc3[nH]cnc3[C@H]2c2nc3c(F)cccc3s2)o1 (single isomer, unassigned) [Example 2075]	
< 0.5	CC(O)c1nc(Cl)c(C(=O)N2CCc3[nH]cnc3[C@H]2c2nc3c(F)cccc3s2)o1 (single isomer, unassigned) [Example 2079]	
0.5 to 1	CC(O)c1nc(Cl)c(C(=O)N2CCc3[nH]cnc3[C@H]2c2nc3c(F)cccc3s2)o1 (single isomer, unassigned) [Example 2080]	
1 to 5	CC(O)c1nc(Cl)c(C(=O)N2CCc3[nH]cnc3[C@@H]2c2nc3c(F)cccc3s2)o1 (single isomer, unassigned) [Example 2081]	
1 to 5	CC(O)c1nc(Cl)c(C(=O)N2CCc3[nH]cnc3[C@@H]2c2nc3c(F)cccc3s2)o1 (single isomer, unassigned) [Example 2082]	
0.5 to 1	CN(C)CCc1nc(C(F)(F)F)c(C(=O)N2CCCc3[nH]cnc3[C@H]2c2nc3ccccc3s2)o1 (single isomer, unassigned) [Example 2125]	
1 to 5	CN(C)CCc1nc(C(F)(F)F)c(C(=O)N2CCCc3[nH]cnc3[C@@H]2c2nc3ccccc3s2)o1 (single isomer, unassigned) [Example 2126]	
	O=C(N1CCC(O)C1)N1CCc2[nH]cnc2C1c1nc2ccccc2s1 [4S enantiomer of (3R)-1-[4-(1,3-benzothiazol-2-yl)-1H,4H,5H,]	AC50 [1]: 1 to 5 µM
	COCCc1ncc(C(=O)N2CC(C)c3[nH]cnc3C2c2nc3ccccc3s2)o1 [(4R,7R) diastereomer of 2-[5-[2-(2-methoxyethyl)-1,3-oxazole]	AC50 (24 hrs with compound): E, E
	COCCc1ncc(C(=O)N2CC(C)c3[nH]cnc3C2c2nc3ccccc3s2)o1 [(4R,7S) diastereomer of 2-[5-[2-(2-methoxyethyl)-1,3-oxazole]	AC50 (24 hrs with compound): E, E
	O=C(Cc1nc(C(F)(F)F)cs1)N1CCc2[nH]cnc2[C@H]1c1nc2ccccc2[nH]1 [(S)-1-(4-(1H-benzo[d]imidazol-2-yl)-1,4,6,7-tetrahydro-5H-imidazo[4,5-c]pyridin-5-yl)-2-(4-(trifluoromethyl)thiazol-2-yl)ethan-1-one]	AC50 [1]: 1 to 5 µM
	O=C(Cc1ccc(F)cc1)N1CCc2[nH]cnc2[C@H]1c1nc2ccccc2[nH]1 [(S)-1-(4-(1H-benzo[d]imidazol-2-yl)-1,4,6,7-tetrahydro-5H-imidazo[4,5-c]pyridin-5-yl)-2-(4-fluorophenyl)ethan-1-one]	AC50 [1]: 1 to 5 µM
	Cc1nnc(CC(=O)N2CCc3[nH]cnc3[C@H]2c2nc3ccccc3[nH]2)s1 [(S)-1-(4-(1H-benzo[d]imidazol-2-yl)-1,4,6,7-tetrahydro-5H-imidazo[4,5-c]pyridin-5-yl)-2-(5-methyl-1,3,4-thiadiazol-2-yl)ethan-1-one]	AC50 [1]: > 5 µM
	O=C(CCc1nc(Cl)cs1)N1CCc2[nH]cnc2[C@H]1c1nc2ccccc2[nH]1 [(S)-1-(4-(1H-benzo[d]imidazol-2-yl)-1,4,6,7-tetrahydro-5H-imidazo[4,5-c]pyridin-5-yl)-3-(4-chlorothiazol-2-yl)propan-1-one]	AC50 [1]: 1 to 5 µM
	Cc1csc(CCC(=O)N2CCc3[nH]cnc3[C@H]2c2nc3ccccc3[nH]2)n1 [(S)-1-(4-(1H-benzo[d]imidazol-2-yl)-1,4,6,7-tetrahydro-5H-imidazo[4,5-c]pyridin-5-yl)-3-(4-methylthiazol-2-yl)propan-1-one]	AC50 [1]: 1 to 5 µM
	O=C(CCc1nnc(Br)s1)N1CCc2[nH]cnc2[C@H]1c1nc2ccccc2[nH]1 [(S)-1-(4-(1H-benzo[d]imidazol-2-yl)-1,4,6,7-tetrahydro-5H-imidazo[4,5-c]pyridin-5-yl)-3-(5-bromo-1,3,4-thiadiazol-2-yl)propan-1-one]	AC50 [1]: 1 to 5 µM
	CCc1nnc(CCC(=O)N2CCc3[nH]cnc3[C@H]2c2nc3ccccc3[nH]2)s1 [(S)-1-(4-(1H-benzo[d]imidazol-2-yl)-1,4,6,7-tetrahydro-5H-imidazo[4,5-c]pyridin-5-yl)-3-(5-ethyl-1,3,4-thiadiazol-2-yl)propan-1-one]	AC50 [1]: 1 to 5 µM
	Cc1cnc(CCC(=O)N2CCc3[nH]cnc3[C@H]2c2nc3ccccc3[nH]2)s1 [(S)-1-(4-(1H-benzo[d]imidazol-2-yl)-1,4,6,7-tetrahydro-5H-imidazo[4,5-c]pyridin-5-yl)-3-(5-methylthiazol-2-yl)propan-1-one]	AC50 [1]: 1 to 5 µM
